# Assay results reported in PubChem BioAssay AID328 (DTP/NCI, 2004).
# “And” between values parts separate entries of the source, which are not always exact repeats. Equal values may be shown once. Inconclusive results and toxic doses are left out.
# Tested on: BDF1 mice, P388 leukemia ip, median survival T/C
# Test: NCI In Vivo Anticancer Drug Screen. Data for tumor model P388 Leukemia (intraperitoneal) in B6D2F1 (BDF1) mice
# Conditions: endpoint: median survival time, higher = longer survival
# Procedure, shortened: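 Compound-treated tumour-bearing mice were compared with vehicle-treated controls. Survival was recorded, and the value is the treated-group measurement divided by the control-group measurement (T/C).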
# [1] = dose: 100.0 mg/kg/injection, schedule: Q01DX009 (ip), vehicle: saline with Tween-80
# [2] = dose: 100.0 mg/kg/injection, schedule: Q04DX003 (ip), vehicle: Klucel (hydroxypropylcellulose) (HPC)
# [3] = dose: 200.0 mg/kg/injection, schedule: Q01DX009 (ip), vehicle: saline with Tween-80
# [4] = dose: 400.0 mg/kg/injection, schedule: Q01DX009 (ip), vehicle: saline with Tween-80
# [5] = dose: 400.0 mg/kg/injection, schedule: Q04DX003 (ip), vehicle: Klucel (hydroxypropylcellulose) (HPC)
# [6] = dose: 100.0 mg/kg/injection, schedule: Q04DX003 (ip), vehicle: saline with Tween-80
# [7] = dose: 200.0 mg/kg/injection, schedule: Q04DX003 (ip), vehicle: saline with Tween-80
# [8] = dose: 400.0 mg/kg/injection, schedule: Q04DX003 (ip), vehicle: saline with Tween-80
# [9] = dose: 25.0 mg/kg/injection, schedule: Q04DX003 (ip), vehicle: saline
# [10] = dose: 50.0 mg/kg/injection, schedule: Q04DX003 (ip), vehicle: saline
# [11] = dose: 100.0 mg/kg/injection, schedule: Q04DX003 (ip), vehicle: saline
# [12] = dose: 6.25 mg/kg/injection, schedule: Q01DX009 (ip), vehicle: saline
# [13] = dose: 12.5 mg/kg/injection, schedule: Q01DX009 (ip), vehicle: saline
# [14] = dose: 25.0 mg/kg/injection, schedule: Q01DX009 (ip), vehicle: Klucel (hydroxypropylcellulose) (HPC)
# [15] = dose: 50.0 mg/kg/injection, schedule: Q01DX009 (ip), vehicle: Klucel (hydroxypropylcellulose) (HPC)
# [16] = dose: 50.0 mg/kg/injection, schedule: Q01DX009 (ip), vehicle: saline with Tween-80
# [17] = dose: 100.0 mg/kg/injection, schedule: Q01DX009 (ip), vehicle: saline
structure (smiles),measurement,setting,value
ClC1=C(Br)C(Br)(Br)C(=C(Br)Br)C1(Br)Br,T/C,[1],100 % of control
same,T/C,[2],90 % of control
same,T/C,[3],109 % of control
same,T/C,[4],104 % of control
same,T/C,[5],100 % of control
Clc1ccc(CN2COc3c(ccc4cccnc34)C2)cc1Cl,T/C,"dose: 50.0 mg/kg/injection, schedule: Q04DX003 (ip), vehicle: saline with Tween-80",104 % of control
same,T/C,[6],104 % of control and 118 % of control
same,T/C,[7],109 % of control
same,T/C,[8],120 % of control
CCOC(=O)C(C)C(OCC)OCC (stereo not given),T/C,[1],95 % of control
same,T/C,[6],100 % of control
same,T/C,[3],109 % of control
same,T/C,[7],91 % of control
same,T/C,[4],109 % of control
same,T/C,[8],100 % of control
Cc1cc(Cl)c2ccccc2[n+]1C,T/C,[9],96 % of control
same,T/C,[10],88 % of control
same,T/C,[11],103 % of control
Cc1c2c(ccc3ccccc32)c[n+]2ccccc12,T/C,[12],105 % of control
same,T/C,[13],122 % of control
same,T/C,"dose: 12.5 mg/kg/injection, schedule: Q04DX003 (ip), vehicle: saline",118 % of control
same,T/C,[9],122 % of control
CC[N+](CC)(CC)CCCCC[N+](CC)(CC)CC,T/C,"dose: 6.25 mg/kg/injection, schedule: Q04DX003 (ip), vehicle: water",104 % of control
same,T/C,"dose: 12.5 mg/kg/injection, schedule: Q04DX003 (ip), vehicle: water",114 % of control
same,T/C,"dose: 25.0 mg/kg/injection, schedule: Q04DX003 (ip), vehicle: water",100 % of control and 114 % of control
C[P+](c1ccc(F)cc1)(c1ccc(F)cc1)c1ccc(F)cc1,T/C,"dose: 12.5 mg/kg/injection, schedule: Q01DX009 (ip), vehicle: Klucel (hydroxypropylcellulose) (HPC)",86 % of control
same,T/C,[14],104 % of control
same,T/C,"dose: 25.0 mg/kg/injection, schedule: Q04DX003 (ip), vehicle: Klucel (hydroxypropylcellulose) (HPC)",104 % of control
same,T/C,[15],109 % of control
same,T/C,"dose: 50.0 mg/kg/injection, schedule: Q04DX003 (ip), vehicle: Klucel (hydroxypropylcellulose) (HPC)",90 % of control
Oc1ccc(Nc2ccccc2)cc1,T/C,"dose: 100.0 mg/kg/injection, schedule: Q01DX001 (ip), vehicle: saline",95 % of control
same,T/C,"dose: 200.0 mg/kg/injection, schedule: Q01DX001 (ip), vehicle: saline",100 % of control
same,T/C,"dose: 400.0 mg/kg/injection, schedule: Q01DX001 (ip), vehicle: saline",100 % of control
C=C(C)S(=O)(=O)c1ccc(C)cc1,T/C,[6],108 % of control
same,T/C,[7],91 % of control
same,T/C,[8],88 % of control
CS(=O)CC(O)(c1cccs1)C1CC1 (stereo not given),T/C,[16],103 % of control
same,T/C,[1],117 % of control
same,T/C,[3],98 % of control
O=[N+]([O-])c1ccc(Cl)c2nonc12,T/C,"dose: 15.0 mg/kg/injection, schedule: Q01DX009 (ip), vehicle: saline with Tween-80",103 % of control
CC/C(=C(\c1ccccc1)c1ccc(OCCN(C)C)cc1)c1ccccc1,T/C,[14],122 % of control
same,T/C,[15],122 % of control
same,T/C,"dose: 100.0 mg/kg/injection, schedule: Q01DX009 (ip), vehicle: Klucel (hydroxypropylcellulose) (HPC)",102 % of control and 108 % of control
CC(=O)[C@H]1CC[C@H]2[C@@H]3C[C@H](C)C4=CC(=O)CC[C@]4(C)[C@@]3(F)[C@@H](O)C[C@]12C,T/C,"dose: 25.0 mg/kg/injection, schedule: Q01DX009 (ip), vehicle: saline with Tween-80",118 % of control
same,T/C,[16],109 % of control
same,T/C,[1],104 % of control and 109 % of control
CN(C)c1nn2c(-c3ccccc3)nnc2s1,T/C,[17],86 % of control
same,T/C,"dose: 200.0 mg/kg/injection, schedule: Q01DX009 (ip), vehicle: saline",90 % of control
same,T/C,"dose: 400.0 mg/kg/injection, schedule: Q01DX009 (ip), vehicle: saline",100 % of control
Cc1cc2nc3c(=O)[nH]c(=O)nc-3n(CC(O)C(O)C(O)C(O)CO)c2cc1C (stereo not given),T/C,"dose: 25.0 mg/kg/injection, schedule: Q01DX010 (ip), vehicle: saline",109 % of control
same,T/C,"dose: 50.0 mg/kg/injection, schedule: Q01DX010 (ip), vehicle: saline",95 % of control and 100 % of control
same,T/C,"dose: 100.0 mg/kg/injection, schedule: Q01DX010 (ip), vehicle: saline",90 % of control and 95 % of control and 104 % of control
same,T/C,"dose: 200.0 mg/kg/injection, schedule: Q01DX010 (ip), vehicle: saline",100 % of control and 114 % of control
same,T/C,"dose: 400.0 mg/kg/injection, schedule: Q01DX010 (ip), vehicle: saline",104 % of control and 110 % of control and 114 % of control
CCc1c2cc(OC)c(OC)cc2cc2c3cc(OC)c(OC)cc3cc[n+]12 (tested in a mixture with another compound),T/C,[10],150 % of control
same,T/C,"dose: 75.0 mg/kg/injection, schedule: Q04DX003 (ip), vehicle: saline",150 % of control
same,T/C,[11],166 % of control
same,T/C,"dose: 150.0 mg/kg/injection, schedule: Q04DX003 (ip), vehicle: saline",158 % of control
COc1ccc2[nH]c(=O)c(C)c(C)c2c1,T/C,"dose: 3.12 mg/kg/injection, schedule: Q01DX009 (ip), vehicle: saline",98 % of control
same,T/C,[12],94 % of control
same,T/C,[13],94 % of control
same,T/C,"dose: 25.0 mg/kg/injection, schedule: Q01DX009 (ip), vehicle: saline",92 % of control
same,T/C,[9],107 % of control
same,T/C,"dose: 50.0 mg/kg/injection, schedule: Q01DX009 (ip), vehicle: saline",96 % of control and 117 % of control
same,T/C,[10],118 % of control
same,T/C,[17],94 % of control
same,T/C,[11],111 % of control
same,T/C,"dose: 200.0 mg/kg/injection, schedule: Q04DX003 (ip), vehicle: saline",100 % of control
same,T/C,"dose: 400.0 mg/kg/injection, schedule: Q04DX003 (ip), vehicle: saline",115 % of control
CC(=O)Nc1ccc(Cl)cc1C(=O)O,T/C,[2],91 % of control
same,T/C,"dose: 200.0 mg/kg/injection, schedule: Q04DX003 (ip), vehicle: Klucel (hydroxypropylcellulose) (HPC)",95 % of control
same,T/C,[5],100 % of control
CCNC(=O)OCc1cnc(C)c(OC(=O)NCC)c1COC(=O)NCC,T/C,"dose: 25.0 mg/kg/injection, schedule: Q01DX005 (ip), vehicle: saline with Tween-80",98 % of control
same,T/C,"dose: 50.0 mg/kg/injection, schedule: Q01DX005 (ip), vehicle: saline with Tween-80",110 % of control
same,T/C,"dose: 100.0 mg/kg/injection, schedule: Q01DX005 (ip), vehicle: saline with Tween-80",100 % of control
same,T/C,"dose: 200.0 mg/kg/injection, schedule: Q01DX005 (ip), vehicle: saline with Tween-80",101 % of control
CC[N+](CC)(CC)CC.N#C/C([SH2+])=C(/[SH2+])C#N.N#C/C([SH2+])=C(/[SH2+])C#N.[Fe+2],T/C,"dose: 1.56 mg/kg/injection, schedule: Q01DX009 (ip), vehicle: saline with Tween-80",105 % of control
same,T/C,"dose: 3.12 mg/kg/injection, schedule: Q01DX009 (ip), vehicle: saline with Tween-80",110 % of control
same,T/C,"dose: 3.5 mg/kg/injection, schedule: Q01DX001 (ip), vehicle: saline with Tween-80",100 % of control
same,T/C,"dose: 6.25 mg/kg/injection, schedule: Q01DX009 (ip), vehicle: saline with Tween-80",110 % of control
same,T/C,"dose: 7.0 mg/kg/injection, schedule: Q01DX001 (ip), vehicle: saline with Tween-80",95 % of control
same,T/C,"dose: 9.2 mg/kg/injection, schedule: Q04DX003 (ip), vehicle: saline with Tween-80",100 % of control
same,T/C,"dose: 14.0 mg/kg/injection, schedule: Q04DX003 (ip), vehicle: saline with Tween-80",95 % of control
N#CC1OC(COC(=O)c2ccccc2)C(O)C1O (stereo not given),T/C,[16],101 % of control
same,T/C,[1],94 % of control
same,T/C,[3],88 % of control
O=C(Oc1ccc(Cl)cc1)c1ccc(C(=O)Oc2ccc(Cl)cc2)cc1,T/C,"dose: 176.0 mg/kg/injection, schedule: Q04DX003 (ip), vehicle: saline with Tween-80",90 % of control
same,T/C,"dose: 264.0 mg/kg/injection, schedule: Q04DX003 (ip), vehicle: saline with Tween-80",100 % of control
same,T/C,[8],90 % of control
O=C(O)CCc1c[nH]c2ccc(N(CCCl)CCCl)cc12,T/C,"dose: 0.04 mg/kg/injection, schedule: Q04DX003 (ip), vehicle: saline with Tween-80",109 % of control
same,T/C,"dose: 0.08 mg/kg/injection, schedule: Q04DX003 (ip), vehicle: saline with Tween-80",109 % of control
same,T/C,"dose: 0.5 mg/kg/injection, schedule: Q04DX003 (ip), vehicle: saline with Tween-80",158 % of control
same,T/C,"dose: 0.5 mg/kg/injection, schedule: Q04DX003 (ip), vehicle: saline",231 % of control
same,T/C,"dose: 0.75 mg/kg/injection, schedule: Q04DX003 (ip), vehicle: saline with Tween-80",154 % of control
same,T/C,"dose: 1.0 mg/kg/injection, schedule: Q04DX003 (ip), vehicle: saline",90 % of control
